According to patent publication US4234579A, “Penicillanic acid 1,1-dioxides as β-lactamase inhibitors” (priority 1979, dated 1980):
Where two headings read alike, the source gives them in different places.

Assays:
Assay in all cases: Mode MIC of antibiotic and PA 1,1-Dioxide alone and in combination
Assay type in all cases: cell-based
[1] = test system: Staphylococcus aureus; settings: for MIC: Staphylococcus aureus, 18 h, read-out: Mode MIC alone
Excerpt: (§1) As indicated hereinbefore, the compounds of formula I, wherein R^1 is hydrogen or an ester-forming residue readily hydrolyzable in vivo, are antibacterial agents of medium potency. […] The procedure which is followed is the one recommended by the International Collaborative Study on Antibiotic Sensitivity Testing (Ericcson and Sherris, Acta. Pathologica et Microbiologia Scandinav, Supp. 217, Section B: 64-68 [1971]), and employs brain heart infusion (BHI) agar and the inocula replicating device. Overnight growth tubes are diluted 100 fold for use as the standard inoculum (20,000-10,000 cells in approximately 0.002 ml. are placed on the agar surface; 20 ml. of BHI agar/dish). Twelve 2 fold dilutions of the test compound are employed, with initial concentration of the test drug being 200 mcg./ml. Single colonies are disregarded when reading plates after 18 hrs. at 37° C. The susceptibility (MIC) of the test organism is accepted as the lowest concentration of compound capable of producing complete inhibition of growth as judged by the naked eye.
(§2) The manner in which the said compounds of the formula I increase the effectiveness of a β-lactam antibiotic can be appreciated by reference to experiments in which the MIC of a given antibiotic alone, and a compound of the formula I wherein R^1 is hydrogen, alone, are measured. These MIC's are then compared with the MIC values obtained with a combination of the given antibiotic and the compound of the formula I wherein R^1 is hydrogen. […] The MIC values of combinations are measured using the method described by Barry and Sabath in "Manual of Clinical Microbiology", edited by Lenette, Spaulding and Truant, 2nd Edition, 1974, American Society for Microbiology.
(§3) From Table II, it can be seen that against 19 ampicillin-resistant strains of Staphylococcus aureus, the mode MIC of ampicillin, and of penicillanic acid 1,1-dioxide, is 200 mcg./ml. […] The other entries in Table II show enhancement of the antibacterial effectiveness of ampicillin against 26 ampicillin resistant strains of Haemophilus influenzae, 18 ampicillin resistant strains of Klebsiella pneumoniae, and 15 strains of the anerobe Bacteroides fragilis. Tables III, IV and V show enhancement of the antibacterial potency of benzylpenicillin (penicillin G) carbenicillin (α-carboxybenzylpenicillin) and cefazolin, respectively, against strains of S. aureus, H. influenzae, K. pneumoniae and Bacteroides fragilis.

[2] = test system: Haemophilus influenzae; settings: for MIC: Haemophilus influenzae, 18 h, alone
Excerpt: as §1, §2, §3

[3] = test system: Klebsiella pneumoniae; settings: for MIC: Klebsiella pneumoniae, 18 h, read-out: Mode MIC alone
Excerpt: as §1, §2, §3

[4] = test system: Bacteroides fragilis; settings: for MIC: Bacteroides fragilis, 18 h, read-out: Mode MIC alone
Excerpt: as §1, §2, §3

| SMILES | MIC [1] [µg/mL] | Mode MIC's of penicillin G and PA 1,1-Dioxide in combination ([1]; Table III, 20 strains, penicillin G + PA 1,1-Dioxide in combination) [µg/mL] | MIC ([2]; read-out: Mode MIC alone, Table III, 25 strains) [µg/mL] | Mode MIC's of penicillin G and PA 1,1-Dioxide in combination ([2]; Table III, 25 strains, penicillin G + PA 1,1-Dioxide in combination) [µg/mL] | MIC [3] [µg/mL] | Mode MIC's of penicillin G and PA 1,1-Dioxide in combination ([3]; Table III, 24 strains, penicillin G + PA 1,1-Dioxide in combination) [µg/mL] | MIC [4] [µg/mL] | Mode MIC's of penicillin G and PA 1,1-Dioxide in combination ([4]; Table III, 15 strains, penicillin G + PA 1,1-Dioxide in combination) [µg/mL] | MIC ([1]; Table II, 19 ampicillin-resistant strains, alone) [µg/mL] | Mode MIC's of ampicillin and PA 1,1-Dioxide in combination ([1]; Table II, 19 ampicillin-resistant strains, ampicillin + PA 1,1-Dioxide in combination) [µg/mL] | MIC ([2]; Table II, 26 ampicillin resistant strains, read-out: Mode MIC alone) [µg/mL] | Mode MIC's of ampicillin and PA 1,1-Dioxide in combination ([2]; Table II, 26 ampicillin resistant strains, ampicillin + PA 1,1-Dioxide in combination) [µg/mL] | MIC ([3]; Table II, 18 ampicillin resistant strains, alone) [µg/mL] | Mode MIC's of ampicillin and PA 1,1-Dioxide in combination ([3]; Table II, 18 ampicillin resistant strains, ampicillin + PA 1,1-Dioxide in combination) [µg/mL] | MIC ([4]; Table II, 15 strains, alone) [µg/mL] | Mode MIC's of ampicillin and PA 1,1-Dioxide in combination ([4]; Table II, 15 strains, ampicillin + PA 1,1-Dioxide in combination) [µg/mL] |
| --- | --- | --- | --- | --- | --- | --- | --- | --- | --- | --- | --- | --- | --- | --- | --- | --- |
| CC1(C)S[C@@H]2[C@H](NC(=O)Cc3ccccc3)C(=O)N2[C@H]1C(=O)O [penicillin G, reference compound] | 200 | 3.12 | 50 | 0.78 | 400 | 25 | 25 | 1.56 |  |  |  |  |  |  |  |  |
| CC1(C)S[C@@H]2[C@H](NC(=O)[C@H](N)c3ccccc3)C(=O)N2[C@H]1C(=O)O [ampicillin, reference compound] |  |  |  |  |  |  |  |  | 200 | 1.56 | 200 | 0.78 | > 400 | 6.25 | 50 | 1.56 |
